The source made the active and inactive calls. The calls are words filed in the database; no cut-off is given here.
molecular target: Bcl-2-like protein 1 (Homo sapiens, UniProt Q07817, E96A); assay: Binding affinity to human Bcl-XL E96A mutant by surface plasma resonance based biosensor system; details: not given
Sequence (Q07817 whole entry E96A): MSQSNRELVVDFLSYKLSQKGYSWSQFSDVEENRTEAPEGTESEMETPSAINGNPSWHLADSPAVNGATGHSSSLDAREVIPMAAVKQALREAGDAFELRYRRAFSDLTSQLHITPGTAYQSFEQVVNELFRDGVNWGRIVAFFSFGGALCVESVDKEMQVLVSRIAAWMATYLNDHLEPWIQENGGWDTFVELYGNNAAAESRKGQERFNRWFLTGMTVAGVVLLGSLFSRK

Kd [µM] | Compound
34.8 | COc1ccccc1C1C2=C(N=c3s/c(=C\c4cccc(OCC(=O)O)c4)c(=O)n31)c1ccccc1CC2 (configuration not stated)

test system: K562; assay: cells; details: Homo sapiens, K562, 48 h
Description: Cytotoxicity against human K562 cells after 48 hrs by MTT assay

EC50 [µM] | Compound
6.42 | COc1ccc(C2C3=C(N=c4s/c(=C\c5ccc(OCc6cccc(C(=O)O)c6)c(OC)c5)c(=O)n42)c2ccccc2CC3)cc1 (configuration not stated)
50.9 | COc1ccccc1C1C2=C(N=c3s/c(=C\c4cccc(OCC(=O)O)c4)c(=O)n31)c1ccccc1CC2 (configuration not stated)

molecular target: Bcl-2-like protein 1 (Homo sapiens, UniProt Q07817, Y195A); assay: Binding affinity to human Bcl-XL Y195A mutant by surface plasma resonance based biosensor system; details: not given
Sequence (Q07817 whole entry Y195A): as the sequence (Q07817 whole entry E96A) above, with A96E, Y195A counted along it

Kd [µM] | Compound
904 | COc1ccccc1C1C2=C(N=c3s/c(=C\c4cccc(OCC(=O)O)c4)c(=O)n31)c1ccccc1CC2 (configuration not stated)

test system: OVCAR-3; assay: Cytotoxicity against human OVCAR-3 cells after 48 hrs by MTT assay; details: OVCAR-3, 48 h

Compound | EC50 [µM]
COc1ccc(C2C3=C(N=c4s/c(=C\c5ccc(OCc6cccc(C(=O)O)c6)c(OC)c5)c(=O)n42)c2ccccc2CC3)cc1 (configuration not stated) | 11.7
COc1ccccc1C1C2=C(N=c3s/c(=C\c4cccc(OCC(=O)O)c4)c(=O)n31)c1ccccc1CC2 (configuration not stated) | 1.54

molecular target: Apoptosis regulator Bcl-2 (Homo sapiens, UniProt P10415); assay: Displacement of FITC labeled BH3 peptide from His-tagged human BCL2 after 1 hr by fluorescence polarization assay; details: not given
Sequence (P10415 whole entry): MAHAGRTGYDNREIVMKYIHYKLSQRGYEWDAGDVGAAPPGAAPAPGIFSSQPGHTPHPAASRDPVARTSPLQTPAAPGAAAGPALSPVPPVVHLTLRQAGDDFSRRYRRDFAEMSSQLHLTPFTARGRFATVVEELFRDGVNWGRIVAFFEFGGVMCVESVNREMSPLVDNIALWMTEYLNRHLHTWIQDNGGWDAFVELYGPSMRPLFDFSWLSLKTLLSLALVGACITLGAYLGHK

IC50 [µM] | Compound
19.4 | COc1ccc(C2C3=C(N=c4s/c(=C\c5ccc(OCc6cccc(C(=O)O)c6)c(OC)c5)c(=O)n42)c2ccccc2CC3)cc1 (configuration not stated)
3.1 | COc1ccccc1C1C2=C(N=c3s/c(=C\c4cccc(OCC(=O)O)c4)c(=O)n31)c1ccccc1CC2 (configuration not stated)

test system: K562; assay: Induction of apoptosis in human K562 cells assessed reduction of mitochondrial membrane potential after 24 hrs using JC1 fluorescent dye; details: not given

Compound | Activity
COc1ccccc1C1C2=C(N=c3s/c(=C\c4cccc(OCC(=O)O)c4)c(=O)n31)c1ccccc1CC2 (configuration not stated) | Dose-dependent effect

molecular target: T1, Bcl-2-like protein 1 (Homo sapiens, UniProt Q07817); assay: Inhibition of human Bcl-XL; details: not given
T1 sequence (Q07817 whole entry): as the sequence (Q07817 whole entry E96A) above, with A96E counted along it

IC50 [µM] | Compound
17.4 | COc1ccc(C2C3=C(N=c4s/c(=C\c5ccc(OCc6cccc(C(=O)O)c6)c(OC)c5)c(=O)n42)c2ccccc2CC3)cc1 (configuration not stated)
3.4 | COc1ccccc1C1C2=C(N=c3s/c(=C\c4cccc(OCC(=O)O)c4)c(=O)n31)c1ccccc1CC2 (configuration not stated)

test system: PC-3; assay: Cytotoxicity against human PC3 cells after 48 hrs by MTT assay; assay type: functional, cell-based; details: not given

Compound | Activity
COc1ccc(C2C3=C(N=c4s/c(=C\c5ccc(OCc6cccc(C(=O)O)c6)c(OC)c5)c(=O)n42)c2ccccc2CC3)cc1 (configuration not stated) | Dose-dependent effect
COc1ccccc1C1C2=C(N=c3s/c(=C\c4cccc(OCC(=O)O)c4)c(=O)n31)c1ccccc1CC2 (configuration not stated) | Dose-dependent effect

same assay, conditions: PC-3, 48 h

Compound | EC50 [µM]
COc1ccc(C2C3=C(N=c4s/c(=C\c5ccc(OCc6cccc(C(=O)O)c6)c(OC)c5)c(=O)n42)c2ccccc2CC3)cc1 (configuration not stated) | > 100
COc1ccccc1C1C2=C(N=c3s/c(=C\c4cccc(OCC(=O)O)c4)c(=O)n31)c1ccccc1CC2 (configuration not stated) | 37.6

molecular target: T1, Bcl-2-like protein 1; assay: Binding affinity to human Bcl-XL by surface plasma resonance based biosensor system; details: not given

Kd [µM] | Compound
9.5 | COc1ccccc1C1C2=C(N=c3s/c(=C\c4cccc(OCC(=O)O)c4)c(=O)n31)c1ccccc1CC2 (configuration not stated)

test system: not listed separately; assay: Cytotoxicity against human Bel7404 cells after 48 hrs by MTT assay; details: BEL-7404, 48 h

Compound | EC50 [µM]
COc1ccc(C2C3=C(N=c4s/c(=C\c5ccc(OCc6cccc(C(=O)O)c6)c(OC)c5)c(=O)n42)c2ccccc2CC3)cc1 (configuration not stated) | 7.2
COc1ccccc1C1C2=C(N=c3s/c(=C\c4cccc(OCC(=O)O)c4)c(=O)n31)c1ccccc1CC2 (configuration not stated) | 7.9

test system: HepG2; assay: cells; details: Homo sapiens, HepG2, 48 h
Description: Cytotoxicity against human HepG2 cells after 48 hrs by MTT assay

EC50 [µM] | Compound
9.9 | COc1ccc(C2C3=C(N=c4s/c(=C\c5ccc(OCc6cccc(C(=O)O)c6)c(OC)c5)c(=O)n42)c2ccccc2CC3)cc1 (configuration not stated)
12.7 | COc1ccccc1C1C2=C(N=c3s/c(=C\c4cccc(OCC(=O)O)c4)c(=O)n31)c1ccccc1CC2 (configuration not stated)

test system: K562; assay: Induction of apoptosis in human K562 cells assessed activation of caspase9 at 25 uM after 48 hrs by immunoblotting; assay type: functional, cell-based; details: not given

Compound | Activity
COc1ccccc1C1C2=C(N=c3s/c(=C\c4cccc(OCC(=O)O)c4)c(=O)n31)c1ccccc1CC2 (configuration not stated) | Active

molecular target: T1, Bcl-2-like protein 1; assay: Displacement of FITC-labeled BH3 peptide from human Bcl-XL after 1 hr by fluorescence polarization assay; details: not given

IC50 [µM] | Compound
17.4 | COc1ccc(C2C3=C(N=c4s/c(=C\c5ccc(OCc6cccc(C(=O)O)c6)c(OC)c5)c(=O)n42)c2ccccc2CC3)cc1 (configuration not stated)
3.4 | COc1ccccc1C1C2=C(N=c3s/c(=C\c4cccc(OCC(=O)O)c4)c(=O)n31)c1ccccc1CC2 (configuration not stated)

test system: K562; assay: Induction of apoptosis in human K562 cells assessed as increase of reactive oxygen species level at 25 uM after 48 hrs using DCFH-DA fluorescent dye relative to control; assay type: functional; details: not given

Compound | fold change (FC)
COc1ccccc1C1C2=C(N=c3s/c(=C\c4cccc(OCC(=O)O)c4)c(=O)n31)c1ccccc1CC2 (configuration not stated) | 2.7

test system: K562; assay: Induction of apoptosis in human K562 cells assessed activation of caspase3 at 25 uM after 48 hrs by immunoblotting; assay type: functional, cell-based; details: not given

Compound | Activity
COc1ccccc1C1C2=C(N=c3s/c(=C\c4cccc(OCC(=O)O)c4)c(=O)n31)c1ccccc1CC2 (configuration not stated) | Active

test system: K562; assay: Induction of apoptosis in human K562 cells assessed as chromatin condensation; assay type: functional, cell-based; details: not given

Compound | Activity
COc1ccccc1C1C2=C(N=c3s/c(=C\c4cccc(OCC(=O)O)c4)c(=O)n31)c1ccccc1CC2 (configuration not stated) | Active

test system: A2780; assay: cells; details: Homo sapiens, A2780, 48 h
Description: Cytotoxicity against human A2780 cells after 48 hrs by MTT assay

EC50 [µM] | Compound
3.03 | COc1ccc(C2C3=C(N=c4s/c(=C\c5ccc(OCc6cccc(C(=O)O)c6)c(OC)c5)c(=O)n42)c2ccccc2CC3)cc1 (configuration not stated)
4.57 | COc1ccccc1C1C2=C(N=c3s/c(=C\c4cccc(OCC(=O)O)c4)c(=O)n31)c1ccccc1CC2 (configuration not stated)

molecular target: Induced myeloid leukemia cell differentiation protein Mcl-1 homolog (Mus musculus, UniProt P97287); assay: Displacement of FITC-labeled BH3 peptide from GST-tagged mouse Mcl1 after 1 hr by fluorescence polarization assay; details: not given
Sequence (P97287 whole entry): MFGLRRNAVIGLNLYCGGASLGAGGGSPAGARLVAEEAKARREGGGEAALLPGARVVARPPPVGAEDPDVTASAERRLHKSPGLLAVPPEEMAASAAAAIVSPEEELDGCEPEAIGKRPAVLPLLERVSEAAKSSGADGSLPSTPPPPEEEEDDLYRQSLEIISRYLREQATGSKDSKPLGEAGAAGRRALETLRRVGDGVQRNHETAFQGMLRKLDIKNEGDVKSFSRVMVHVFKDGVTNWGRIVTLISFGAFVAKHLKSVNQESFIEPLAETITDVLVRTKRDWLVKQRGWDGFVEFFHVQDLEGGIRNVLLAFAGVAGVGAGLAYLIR

IC50 [µM] | Compound
34.4 | COc1ccc(C2C3=C(N=c4s/c(=C\c5ccc(OCc6cccc(C(=O)O)c6)c(OC)c5)c(=O)n42)c2ccccc2CC3)cc1 (configuration not stated)
6.4 | COc1ccccc1C1C2=C(N=c3s/c(=C\c4cccc(OCC(=O)O)c4)c(=O)n31)c1ccccc1CC2 (configuration not stated)

molecular target: Bcl-2-like protein 1 (Homo sapiens, UniProt Q07817, Y101A); assay: Binding affinity to human Bcl-XL Y101A mutant by surface plasma resonance based biosensor system; details: not given
Sequence (Q07817 whole entry Y101A): as the sequence (Q07817 whole entry E96A) above, with A96E, Y101A counted along it

Kd [µM] | Compound
> 1000 | COc1ccc(C2C3=C(N=c4s/c(=C\c5ccc(OCc6cccc(C(=O)O)c6)c(OC)c5)c(=O)n42)c2ccccc2CC3)cc1 (configuration not stated)
6.94 | COc1ccccc1C1C2=C(N=c3s/c(=C\c4cccc(OCC(=O)O)c4)c(=O)n31)c1ccccc1CC2 (configuration not stated)
